Data on five compounds can be found in US20060111445A1, “Novel carboxylic acids and derivatives for the treatment of and preventing diabetes and dyslipidaemia” (priority 2003, published 2006).

Data set [1] relates to vector expressing Gal4 alone. Briefly: Luciferase reporter control without the PPAR ligand binding domain in CV-1 cells. Format: cell-based. How it is done:
(§1) CV-1 cells (monkey kidney cells) are co-transfected with an expression vector for the chimeric proteins PPARα-Gal4 or PPARγ-Gal4 and with a “reporter” plasmid that allows the expression of the luciferase gene placed under the control of a promoter containing Gal4 response elements.
The cells are plated into 96-well microplates and co-transfected using a commercial reagent with the reporter plasmid (pG5-tk-pGL3) and the expression vector for the chimeric protein (PPARα-Gal4 or PPARγ-Gal4). After incubating for 4 hours, whole culture medium (comprising 10% foetal calf serum) is added to the wells. After 24 hours, the medium is removed and replaced with whole medium comprising the test products (50 μM final). […] The cells are then lysed and the luciferase activity is measured using a luminometer. A PPAR activation factor can then be calculated by means of the activation of the expression of the reporter gene induced by the product (relative to the control cells that have not received any product).
By way of example, the compound of Example 1, at a concentration of 50 μM, activates the chimeric protein PPARα-Gal4 by factor of 18, and the chimeric protein PPARγ-Gal4 by a factor of 39. In the absence of the binding domain for the PPAR α or γ ligand (vector expressing Gal4 alone), the luciferase activity measured in the presence of this product is zero.
A general note: In a reporter assay the amount or activity of a reporter protein is the signal.

For data set [2], the target named is T1, chimeric protein PPARγ-Gal4 (Homo sapiens, UniProt P37231).
T1 construct: Gal4 (fusion partner); expressed in transfected cells; host or cells: CV-1 cells (monkey kidney cells)
T1 sequence (P37231 238-503 limits assumed): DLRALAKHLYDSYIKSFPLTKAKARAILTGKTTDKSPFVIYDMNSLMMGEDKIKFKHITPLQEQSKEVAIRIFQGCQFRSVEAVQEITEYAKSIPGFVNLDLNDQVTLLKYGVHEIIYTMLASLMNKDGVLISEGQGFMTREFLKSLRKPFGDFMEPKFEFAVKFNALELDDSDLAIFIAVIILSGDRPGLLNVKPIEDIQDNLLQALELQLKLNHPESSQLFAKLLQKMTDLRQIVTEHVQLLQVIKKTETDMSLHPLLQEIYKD
The data set is described as follows: PPAR activation, Gal4 chimera luciferase reporter in co-transfected CV-1 cells. Format: cell-based. To be noted: 50 μM, 18 hours contact, relative to control cells without product. As to the method: (§2) The measurement of the PPAR activation was performed according to a technique described by Lehmann et al. (1995, J. Biol. Chem. 270: 12953-12956).
as §1
(§3) The cells are plated into 96-well microplates and co-transfected using a commercial reagent with the reporter plasmid (pG5-tk-pGL3) and the expression vector for the chimeric protein (PPARα-Gal4 or PPARγ-Gal4). After incubating for 4 hours, whole culture medium (comprising 10% foetal calf serum) is added to the wells. After 24 hours, the medium is removed and replaced with whole medium comprising the test products (50 μM final). The products are left in contact with the cells for 18 hours. The cells are then lysed and the luciferase activity is measured using a luminometer. A PPAR activation factor can then be calculated by means of the activation of the expression of the reporter gene induced by the product (relative to the control cells that have not received any product).

Data set [3] concerns the target T2, chimeric protein PPARα-Gal4 (Homo sapiens, UniProt Q07869).
T2 construct: Gal4 (fusion partner); expressed in transfected cells; host or cells: CV-1 cells (monkey kidney cells)
T2 sequence (Q07869 239-466 limits assumed): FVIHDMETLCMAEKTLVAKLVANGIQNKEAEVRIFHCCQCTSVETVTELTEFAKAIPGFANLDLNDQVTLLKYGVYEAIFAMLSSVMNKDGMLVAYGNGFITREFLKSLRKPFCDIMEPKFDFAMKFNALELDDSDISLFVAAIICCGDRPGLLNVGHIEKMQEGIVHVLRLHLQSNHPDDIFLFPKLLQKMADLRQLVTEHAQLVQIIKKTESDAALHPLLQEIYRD
The data set is described as above. The class given is cell-based. The conditions noted are these: 50 μM, 18 hours contact, relative to control cells without product. As to the method: as §2, §1, §3

As to `CCCCCCc1cc2c(cc1OCCCC(=O)O)C(=O)CC2` [Example 1, 4-(6-hexyl-3-oxoindan-5-yloxy)butyric acid], in data set [1], the “luciferase activity in the absence of the binding domain for the PPAR α or γ ligand” value is “zero”. Besides, the “PPAR activation factor (activation of the chimeric protein PPARγ-Gal4)” value in data set [2] came out at 39. Further, the “PPAR activation factor (activation of the chimeric protein PPARα-Gal4)” value in data set [3] was found to be 18.

The melting point is the temperature of the solid-liquid transition. On to `CCCCCCc1cc2c(cc1OCCCC(=O)O)C(=NO)CC2` [Example 24, 4-(6-hexyl-3-(hydroxyimino)-5-indanyloxy]butyric acid], for which the melting point is 148 °C.

As to `CCCCCCc1cc2c(cc1NCC(=O)O)C(=O)CC2` [Example 36, (6-Hexyl-3-oxoindan-5-ylamino)acetic acid], the melting point amounted to 110 °C.

Take `CCCCCCc1cc2c(cc1NCC(=O)O)C(=O)CC2` [Example 38, (6-Hexyl-3-oxoindan-5-ylamino)acetic acid]: the melting point came to 144 °C.

`CCCCCCc1cc2c(cc1SCCCC(=O)O)C(=O)CC2` [Example 42, 4-(6-hexyl-3-oxoindan-5-ylsulfanyl)butyric acid] returned a melting point of 100 °C.
